Source: ChEMBL document CHEMBL1821675, “The selective P-TEFb inhibitor CAN508 targets angiogenesis” (Eur J Med Chem, 2011)
Active and inactive are the calls of the source. The calls are words filed in the database; no cut-off is given here.

Tests used:
MDA-MB-231 = test: Cytotoxicity against human MDA-MB-231 cells; type: functional
T47D = test: Cytotoxicity against human T47D cells; type: functional
SF-295 = test: Cytotoxicity against human SF295 cells; type: functional
SNB-75 = test: Cytotoxicity against human SNB75 cells; type: functional
HCT-116 = test: Cytotoxicity against human HCT116 cells; type: functional
EKVX = test: Cytotoxicity against human EKVX cells; type: functional
RPMI-8226 = test: Cytotoxicity against human RPMI8226 cells; type: functional
MDA-MB-435 = test: Cytotoxicity against human MDA-MB-435 cells; type: functional
SK-MEL-2 = test: Cytotoxicity against human SK-MEL-2 cells; type: functional
UACC-62 = test: Cytotoxicity against human UACC62 cells; type: functional
OVCAR-4 = test: Cytotoxicity against human OVCAR4 cells; type: functional
OVCAR-5 = test: Cytotoxicity against human OVCAR5 cells; type: functional
DU-145 = test: Cytotoxicity against human DU145 cells; type: functional
MCF7 = test: Decrease in VEGF expression in human MCF7 cells at >10 uM after 24 hrs by sandwich ELISA; type: functional, cell-based
[1] = biological target: Cyclin-dependent kinase 9 (Homo sapiens) (UniProt P50750); test: Inhibition of CDK9-catalyzed RNA polymerase 2 phosphorylation at Ser2 in human HMEC1 cells after 2 hrs by immunoblotting; type: cell-based
[2] = biological target: Cyclin-dependent kinase 7 (Homo sapiens) (UniProt P50613); test: Inhibition of CDK7-catalyzed RNA polymerase 2 phosphorylation at Ser5 in human HMEC1 cells at 5 to 40 uM after 2 hrs by immunoblotting; type: cell-based
[3] = Inhibition of AMPK assessed as residual activity at 10 uM by radioactivity assay in presence of 50 uM ATP
[4] = biological target: Aurora kinase B (Homo sapiens) (UniProt Q96GD4); test: Inhibition of Aurora B assessed as residual activity at 10 uM by radioactivity assay in presence of 20 uM ATP
[5] = biological target: Serine/threonine-protein kinase BRSK1 (Homo sapiens) (UniProt Q8TDC3); test: Inhibition of BRSK1 assessed as residual activity at 10 uM by radioactivity assay in presence of 20 uM ATP
[6] = biological target: Calcium/calmodulin-dependent protein kinase kinase 2 (Homo sapiens) (UniProt Q96RR4); test: Inhibition of CAMKKbeta assessed as residual activity at 10 uM by radioactivity assay in presence of 20 uM ATP
[7] = biological target: Tyrosine-protein kinase CSK (Homo sapiens) (UniProt P41240); test: Inhibition of CSK assessed as residual activity at 10 uM by radioactivity assay in presence of 20 uM ATP
[8] = biological target: Ephrin type-B receptor 3 (Homo sapiens) (UniProt P54753); test: Inhibition of EPH-B3 assessed as residual activity at 10 uM by radioactivity assay in presence of 20 uM ATP
[9] = biological target: Mitogen-activated protein kinase kinase kinase kinase 2 (Homo sapiens) (UniProt Q12851); test: Inhibition of GCK assessed as residual activity at 10 uM by radioactivity assay in presence of 20 uM ATP
[10] = biological target: Glycogen synthase kinase-3 beta (Homo sapiens) (UniProt P49841); test: Inhibition of GSK3b assessed as residual activity at 10 uM by radioactivity assay in presence of 5 uM ATP
[11] = biological target: Inhibitor of nuclear factor kappa-B kinase subunit epsilon (Homo sapiens) (UniProt Q14164); test: Inhibition of IKK-epsilon assessed as residual activity at 10 uM by radioactivity assay in presence of 50 uM ATP
[12] = biological target: Insulin receptor-related protein (Homo sapiens) (UniProt P14616); test: Inhibition of IRR assessed as residual activity at 10 uM by radioactivity assay in presence of 5 uM ATP
[13] = biological target: Tyrosine-protein kinase JAK2 (Homo sapiens) (UniProt O60674); test: Inhibition of JAK2 assessed as residual activity at 10 uM by radioactivity assay in presence of 5 uM ATP
[14] = biological target: Serine/threonine-protein kinase MARK1 (Homo sapiens) (UniProt Q9P0L2); test: Inhibition of MARK1 assessed as residual activity at 10 uM by radioactivity assay in presence of 20 uM ATP
[15] = biological target: Serine/threonine-protein kinase MARK2 (Homo sapiens) (UniProt Q7KZI7); test: Inhibition of MARK2 assessed as residual activity at 10 uM by radioactivity assay in presence of 20 uM ATP
[16] = biological target: MAP/microtubule affinity-regulating kinase 3 (Homo sapiens) (UniProt P27448); test: Inhibition of MARK3 assessed as residual activity at 10 uM by radioactivity assay in presence of 5 uM ATP
[17] = biological target: Maternal embryonic leucine zipper kinase (Homo sapiens) (UniProt Q14680); test: Inhibition of MELK assessed as residual activity at 10 uM by radioactivity assay in presence of 50 uM ATP
[18] = biological target: MAP kinase-interacting serine/threonine-protein kinase 1 (Homo sapiens) (UniProt Q9BUB5); test: Inhibition of MNK1 assessed as residual activity at 10 uM by radioactivity assay in presence of 50 uM ATP
[19] = biological target: NUAK family SNF1-like kinase 1 (Homo sapiens) (UniProt O60285); test: Inhibition of NUAK1 assessed as residual activity at 10 uM by radioactivity assay in presence of 20 uM ATP
[20] = biological target: Ribosomal protein S6 kinase alpha-1 (Homo sapiens) (UniProt Q15418); test: Inhibition of RSK1 assessed as residual activity at 10 uM by radioactivity assay in presence of 50 uM ATP
[21] = biological target: Serine/threonine-protein kinase Sgk1 (Homo sapiens) (UniProt O00141); test: Inhibition of SGK1 assessed as residual activity at 10 uM by radioactivity assay in presence of 20 uM ATP
[22] = biological target: Myosin light chain kinase, smooth muscle (Homo sapiens) (UniProt Q15746); test: Inhibition of SmMLCK assessed as residual activity at 10 uM by radioactivity assay in presence of 50 uM ATP
[23] = biological target: Serine/threonine-protein kinase TBK1 (Homo sapiens) (UniProt Q9UHD2); test: Inhibition of TBK1 assessed as residual activity at 10 uM by radioactivity assay in presence of 50 uM ATP
[24] = biological target: Tyrosine-protein kinase Yes (Homo sapiens) (UniProt P07947); test: Inhibition of YES1 assessed as residual activity at 10 uM by radioactivity assay in presence of 20 uM ATP
[25] = Antiproliferative activity against HMEC1 cells assessed as decrease in cell viability at 10 to 40 uM within 72 hrs by calcein AM staining-based fluorescence assay; conditions: human, hmec-1, 72 h
[26] = biological target: 3-phosphoinositide-dependent protein kinase 1 (Homo sapiens) (UniProt O15530); test: Inhibition of PDK1 assessed as residual activity at 10 uM by radioactivity assay in presence of 20 uM ATP
Chain of 3-phosphoinositide-dependent protein kinase 1 (Homo sapiens) (O15530 whole entry, looked up): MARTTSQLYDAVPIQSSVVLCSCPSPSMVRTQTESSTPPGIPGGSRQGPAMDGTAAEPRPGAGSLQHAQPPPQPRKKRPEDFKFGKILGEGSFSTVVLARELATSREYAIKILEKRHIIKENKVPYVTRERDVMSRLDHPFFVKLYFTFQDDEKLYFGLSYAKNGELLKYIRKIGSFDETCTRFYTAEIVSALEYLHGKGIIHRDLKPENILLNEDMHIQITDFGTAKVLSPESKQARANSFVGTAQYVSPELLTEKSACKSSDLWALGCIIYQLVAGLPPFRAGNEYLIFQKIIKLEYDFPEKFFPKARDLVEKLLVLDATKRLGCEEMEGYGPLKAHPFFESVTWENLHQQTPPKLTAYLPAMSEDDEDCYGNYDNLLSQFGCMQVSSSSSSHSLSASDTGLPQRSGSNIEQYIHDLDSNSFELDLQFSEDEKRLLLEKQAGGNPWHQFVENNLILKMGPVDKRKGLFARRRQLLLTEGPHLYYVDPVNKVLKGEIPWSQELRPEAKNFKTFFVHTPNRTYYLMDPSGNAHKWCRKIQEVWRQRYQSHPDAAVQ

Chain of Cyclin-dependent kinase 7 (Homo sapiens) (P50613 whole entry): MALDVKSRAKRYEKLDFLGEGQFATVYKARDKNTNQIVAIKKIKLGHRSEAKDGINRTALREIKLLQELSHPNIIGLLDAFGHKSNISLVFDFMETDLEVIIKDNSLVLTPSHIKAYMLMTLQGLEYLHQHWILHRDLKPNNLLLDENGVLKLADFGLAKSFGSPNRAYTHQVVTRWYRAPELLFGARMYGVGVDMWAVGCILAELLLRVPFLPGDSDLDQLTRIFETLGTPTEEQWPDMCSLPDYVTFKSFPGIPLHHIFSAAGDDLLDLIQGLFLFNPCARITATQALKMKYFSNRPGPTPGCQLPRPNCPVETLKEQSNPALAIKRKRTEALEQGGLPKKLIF
Chain of Cyclin-dependent kinase 9 (Homo sapiens) (P50750 whole entry): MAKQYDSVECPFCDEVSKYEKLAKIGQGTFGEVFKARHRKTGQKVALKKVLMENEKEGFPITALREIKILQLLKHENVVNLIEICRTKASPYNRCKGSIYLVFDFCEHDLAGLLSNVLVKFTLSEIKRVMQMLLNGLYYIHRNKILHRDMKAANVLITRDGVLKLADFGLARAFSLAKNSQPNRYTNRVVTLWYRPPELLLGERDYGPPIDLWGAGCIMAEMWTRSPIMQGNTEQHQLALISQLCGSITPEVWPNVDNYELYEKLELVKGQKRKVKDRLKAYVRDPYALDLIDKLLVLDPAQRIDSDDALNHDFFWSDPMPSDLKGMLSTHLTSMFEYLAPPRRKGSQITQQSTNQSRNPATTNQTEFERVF
Chain of Insulin receptor-related protein (Homo sapiens) (P14616 27-742 limits assumed): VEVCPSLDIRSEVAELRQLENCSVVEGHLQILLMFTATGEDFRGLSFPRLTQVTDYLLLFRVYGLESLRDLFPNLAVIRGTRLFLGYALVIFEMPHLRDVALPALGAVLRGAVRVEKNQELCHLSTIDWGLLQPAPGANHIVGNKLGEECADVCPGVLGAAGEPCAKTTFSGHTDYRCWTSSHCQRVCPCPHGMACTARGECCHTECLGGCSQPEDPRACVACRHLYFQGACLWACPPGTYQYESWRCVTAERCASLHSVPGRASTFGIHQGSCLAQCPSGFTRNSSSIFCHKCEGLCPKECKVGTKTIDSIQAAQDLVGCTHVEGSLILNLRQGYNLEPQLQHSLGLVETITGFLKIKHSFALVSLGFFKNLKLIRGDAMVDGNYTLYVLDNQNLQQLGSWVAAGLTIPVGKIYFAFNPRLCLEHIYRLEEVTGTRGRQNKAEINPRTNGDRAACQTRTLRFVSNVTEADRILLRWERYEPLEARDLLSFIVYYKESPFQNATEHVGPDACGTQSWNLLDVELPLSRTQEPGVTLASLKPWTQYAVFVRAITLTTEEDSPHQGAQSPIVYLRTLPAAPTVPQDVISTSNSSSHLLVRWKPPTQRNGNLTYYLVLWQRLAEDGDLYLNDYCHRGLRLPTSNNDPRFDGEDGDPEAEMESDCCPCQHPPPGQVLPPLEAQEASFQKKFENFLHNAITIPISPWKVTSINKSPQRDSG
Chain of Insulin receptor-related protein (Homo sapiens) (P14616 747-1297 limits assumed): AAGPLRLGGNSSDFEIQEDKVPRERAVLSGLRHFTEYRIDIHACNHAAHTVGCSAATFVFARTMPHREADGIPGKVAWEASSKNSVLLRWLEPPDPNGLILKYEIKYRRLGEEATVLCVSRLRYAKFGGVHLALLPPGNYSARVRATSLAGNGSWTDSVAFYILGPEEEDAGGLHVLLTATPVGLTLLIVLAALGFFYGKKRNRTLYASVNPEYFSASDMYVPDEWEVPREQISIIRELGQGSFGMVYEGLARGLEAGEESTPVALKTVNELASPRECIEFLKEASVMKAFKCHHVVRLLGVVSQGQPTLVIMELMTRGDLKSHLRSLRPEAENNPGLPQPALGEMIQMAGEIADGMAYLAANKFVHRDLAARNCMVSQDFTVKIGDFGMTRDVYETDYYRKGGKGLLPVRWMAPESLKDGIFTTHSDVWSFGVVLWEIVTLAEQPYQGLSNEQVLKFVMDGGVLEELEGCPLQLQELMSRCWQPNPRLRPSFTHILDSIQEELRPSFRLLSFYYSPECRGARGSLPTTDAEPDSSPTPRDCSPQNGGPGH
Chain of Mitogen-activated protein kinase kinase kinase kinase 2 (Homo sapiens) (Q12851 whole entry): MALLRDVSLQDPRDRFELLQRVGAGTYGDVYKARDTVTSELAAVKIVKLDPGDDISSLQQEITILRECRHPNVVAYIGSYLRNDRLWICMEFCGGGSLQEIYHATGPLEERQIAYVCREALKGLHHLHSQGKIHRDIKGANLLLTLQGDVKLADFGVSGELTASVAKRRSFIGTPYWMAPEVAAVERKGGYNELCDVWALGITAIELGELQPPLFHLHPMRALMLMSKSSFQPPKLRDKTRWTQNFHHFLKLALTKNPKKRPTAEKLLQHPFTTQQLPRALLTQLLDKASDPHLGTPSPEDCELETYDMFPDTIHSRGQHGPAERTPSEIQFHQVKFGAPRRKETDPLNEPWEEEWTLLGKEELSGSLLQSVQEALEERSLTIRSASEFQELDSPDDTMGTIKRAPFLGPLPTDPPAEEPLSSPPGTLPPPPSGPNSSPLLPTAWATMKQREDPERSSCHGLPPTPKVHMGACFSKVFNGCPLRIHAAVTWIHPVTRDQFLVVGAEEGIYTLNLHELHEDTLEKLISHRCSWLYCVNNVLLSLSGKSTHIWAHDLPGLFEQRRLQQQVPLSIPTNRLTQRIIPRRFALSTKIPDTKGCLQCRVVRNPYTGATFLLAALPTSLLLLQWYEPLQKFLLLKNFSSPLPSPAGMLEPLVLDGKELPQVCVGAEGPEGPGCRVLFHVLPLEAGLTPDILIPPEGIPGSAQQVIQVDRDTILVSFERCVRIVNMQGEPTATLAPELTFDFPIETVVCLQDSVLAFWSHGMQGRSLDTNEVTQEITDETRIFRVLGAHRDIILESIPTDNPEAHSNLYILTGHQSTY
Chain of Tyrosine-protein kinase Yes (Homo sapiens) (P07947 2-543 limits assumed): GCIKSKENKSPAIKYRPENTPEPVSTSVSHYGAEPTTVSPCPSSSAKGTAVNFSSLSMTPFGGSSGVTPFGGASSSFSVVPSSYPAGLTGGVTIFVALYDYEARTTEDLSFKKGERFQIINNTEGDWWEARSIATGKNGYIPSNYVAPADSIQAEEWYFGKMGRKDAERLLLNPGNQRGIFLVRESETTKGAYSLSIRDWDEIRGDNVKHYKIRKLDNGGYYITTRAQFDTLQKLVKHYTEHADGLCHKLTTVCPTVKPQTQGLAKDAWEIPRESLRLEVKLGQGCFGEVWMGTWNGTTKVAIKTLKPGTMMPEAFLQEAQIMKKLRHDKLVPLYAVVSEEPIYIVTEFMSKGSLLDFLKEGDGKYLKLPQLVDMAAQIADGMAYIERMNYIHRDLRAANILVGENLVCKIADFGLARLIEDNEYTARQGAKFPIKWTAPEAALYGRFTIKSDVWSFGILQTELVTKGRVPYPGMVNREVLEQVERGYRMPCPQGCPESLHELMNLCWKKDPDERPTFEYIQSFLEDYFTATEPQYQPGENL
Chain of Aurora kinase B (Homo sapiens) (Q96GD4 whole entry): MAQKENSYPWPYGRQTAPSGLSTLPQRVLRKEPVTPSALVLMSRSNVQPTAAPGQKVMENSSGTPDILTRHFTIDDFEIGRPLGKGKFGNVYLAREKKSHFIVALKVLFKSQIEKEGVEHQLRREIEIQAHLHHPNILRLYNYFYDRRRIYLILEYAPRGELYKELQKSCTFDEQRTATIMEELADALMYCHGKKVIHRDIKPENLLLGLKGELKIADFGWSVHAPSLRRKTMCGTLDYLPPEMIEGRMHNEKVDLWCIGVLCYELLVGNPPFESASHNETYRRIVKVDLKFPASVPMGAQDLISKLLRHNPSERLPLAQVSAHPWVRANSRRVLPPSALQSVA
Chain of Calcium/calmodulin-dependent protein kinase kinase 2 (Homo sapiens) (Q96RR4 2-588 limits assumed): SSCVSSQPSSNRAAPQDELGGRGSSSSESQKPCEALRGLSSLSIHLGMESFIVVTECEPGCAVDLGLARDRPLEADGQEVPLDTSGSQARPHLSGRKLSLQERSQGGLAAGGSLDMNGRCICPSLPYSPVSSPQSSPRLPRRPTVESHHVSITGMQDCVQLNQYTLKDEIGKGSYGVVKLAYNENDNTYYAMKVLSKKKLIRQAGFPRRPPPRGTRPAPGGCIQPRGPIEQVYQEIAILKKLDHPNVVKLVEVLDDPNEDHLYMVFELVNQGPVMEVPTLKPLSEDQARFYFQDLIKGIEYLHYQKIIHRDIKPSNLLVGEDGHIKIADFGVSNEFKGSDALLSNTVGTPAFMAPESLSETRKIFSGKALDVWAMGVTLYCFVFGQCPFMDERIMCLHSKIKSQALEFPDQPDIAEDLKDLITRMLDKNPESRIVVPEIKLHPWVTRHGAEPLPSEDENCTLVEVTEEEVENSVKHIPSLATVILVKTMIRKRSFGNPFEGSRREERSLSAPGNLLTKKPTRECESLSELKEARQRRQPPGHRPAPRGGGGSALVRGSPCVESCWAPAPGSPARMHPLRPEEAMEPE

## Nc1n[nH]c(N)c1/N=N/c1ccc(O)cc1
MDA-MB-231
  GI50: 16.7 µM
T47D
  GI50: 14.2 µM
SF-295
  GI50: 23.3 µM
SNB-75
  GI50: 18.5 µM
HCT-116
  GI50: 18.9 µM
EKVX
  GI50: 22 µM
RPMI-8226
  GI50: 14.4 µM
MDA-MB-435
  GI50: 17.1 µM
SK-MEL-2
  GI50: 14.4 µM
UACC-62
  GI50: 11 µM
OVCAR-4
  GI50: 19 µM
OVCAR-5
  GI50: 23.5 µM
DU-145
  GI50: 17 µM
MCF7
  Activity: Active
[1]
  inhibition: Dose-dependent effect
[2]
  inhibition: Active
[3]
  Activity: 82%
[4]
  Activity: 46%
[5]
  Activity: 66%
[6]
  Activity: 52%
[7]
  Activity: 105%
[8]
  Activity: 45%
[9]
  Activity: 20%
[10]
  Activity: 64%
[11]
  Activity: 45%
[12]
  Activity: 29%
[13]
  Activity: 19%
[14]
  Activity: 72%
[15]
  Activity: 79%
[16]
  Activity: 50%
[17]
  Activity: 46%
[18]
  Activity: 37%
[19]
  Activity: 40%
[20]
  Activity: 93%
[21]
  Activity: 94%
[22]
  Activity: 54%
[23]
  Activity: 55%
[24]
  Activity: 79%
[25]
  Activity: Non-toxic
[26]
  Activity: 66%
